Data published in paper PMC5218480 (PLoS ONE, 2017).

Tested on: MV-4-11 cells
Assay: Gene expression microarray analysis (Affymetrix PrimeView) and GSEA
Type: cell-based, human
Set-up: RFU PODN (11730768_x_at) / Fold change /veh PODN (11730768_x_at) / RFU LINC00158 (11744669_a_at) / Fold change /veh LINC00158 (11744669_a_at) / RFU DUSP10 (11751237_a_at) / Fold change /veh DUSP10 (11751237_a_at) / RFU ID3 (11757404_x_at) / Fold change /veh ID3 (11757404_x_at) / RFU PLEKHG5 (11737974_s_at) / Fold change /veh PLEKHG5 (11737974_s_at) / RFU LRRC4B (11730491_at) / Fold change /veh LRRC4B (11730491_at) / RFU GIMAP4 (11747438_a_at) / Fold change /veh GIMAP4 (11747438_a_at) / RFU KRT8 (11758183_x_at) / Fold change /veh KRT8 (11758183_x_at) / RFU CNN1 (11734310_a_at) / Fold change /veh CNN1 (11734310_a_at) / RFU VPS37D (11726825_at) / Fold change /veh VPS37D (11726825_at) / RFU C10orf10 (11716522_x_at) / Fold change /veh C10orf10 (11716522_x_at) / RFU KIR2DL2 /// KIR2DL4 /// KIR2DL5A /// KIR2DL5B /// KIR2DS1 /// KIR2DS2 /// KIR2DS3 /// KIR2DS4 /// KIR3DL3 /// KIR3DL3 /// KIR3DS1 (11738374_at) / Fold change /veh KIR2DL2 /// KIR2DL4 /// KIR2DL5A /// KIR2DL5B /// KIR2DS1 /// KIR2DS2 /// KIR2DS3 /// KIR2DS4 /// KIR3DL3 /// KIR3DL3 /// KIR3DS1 (11738374_at) / RFU C1QL1 (11718748_at) / Fold change /veh C1QL1 (11718748_at) / RFU TMPRSS4 (11747572_a_at) / Fold change /veh TMPRSS4 (11747572_a_at) / RFU HAMP (11756126_x_at) / Fold change /veh HAMP (11756126_x_at) / RFU RNFT2 (11725882_a_at) / Fold change /veh RNFT2 (11725882_a_at) / RFU NR4A2 (11747474_a_at) / Fold change /veh NR4A2 (11747474_a_at) / RFU ABCC12 (11746883_a_at) / Fold change /veh ABCC12 (11746883_a_at) / RFU TMEM136 (11760407_x_at) / Fold change /veh TMEM136 (11760407_x_at) / RFU CLDN22 /// WWC2 (11732394_at) / Fold change /veh CLDN22 /// WWC2 (11732394_at) / RFU HLA-DPB1 (11760878_x_at) / Fold change /veh HLA-DPB1 (11760878_x_at) / RFU SPINT1 (11716480_a_at) / Fold change /veh SPINT1 (11716480_a_at) / RFU GAP43 (11754022_s_at) / Fold change /veh GAP43 (11754022_s_at) / RFU A4GNT (11735810_at) / Fold change /veh A4GNT (11735810_at) / RFU PRB3 (11715151_x_at) / Fold change /veh PRB3 (11715151_x_at) / RFU TUBB4B (11761932_at) / Fold change /veh TUBB4B (11761932_at) / RFU CAPN14 (11732068_a_at) / Fold change /veh CAPN14 (11732068_a_at) / RFU TMCC2 (11721928_a_at) / Fold change /veh TMCC2 (11721928_a_at) / RFU IRGQ (11745062_a_at) / Fold change /veh IRGQ (11745062_a_at) / RFU FAM174B (11720279_a_at) / Fold change /veh FAM174B (11720279_a_at) / RFU TMPRSS4 (11748680_a_at) / Fold change /veh TMPRSS4 (11748680_a_at) / RFU FAM212B (11763350_a_at) / Fold change /veh FAM212B (11763350_a_at) / RFU PLEKHG5 (11743358_a_at) / Fold change /veh PLEKHG5 (11743358_a_at) / RFU ZSCAN30 (11745921_a_at) / Fold change /veh ZSCAN30 (11745921_a_at) / RFU CMKLR1 (11741424_a_at) / Fold change /veh CMKLR1 (11741424_a_at) / RFU LOC101060620 /// MAPK8IP1 (11723275_at) / Fold change /veh LOC101060620 /// MAPK8IP1 (11723275_at) / RFU SPTSSB (11747773_x_at) / Fold change /veh SPTSSB (11747773_x_at) / RFU PRSS12 (11739890_at) / Fold change /veh PRSS12 (11739890_at) / RFU BIN1 (11741810_x_at) / Fold change /veh BIN1 (11741810_x_at) / RFU WNT11 (11732464_a_at) / Fold change /veh WNT11 (11732464_a_at) / RFU C10orf10 (11716521_a_at) / Fold change /veh C10orf10 (11716521_a_at) / RFU C5orf56 (11738089_at) / Fold change /veh C5orf56 (11738089_at) / RFU CYB561 (11721691_x_at) / Fold change /veh CYB561 (11721691_x_at) / RFU ANKRD19P (11752326_a_at) / Fold change /veh ANKRD19P (11752326_a_at) / RFU OR2T12 /// OR2T33 /// OR2T8 (11738714_s_at) / Fold change /veh OR2T12 /// OR2T33 /// OR2T8 (11738714_s_at) / RFU VCAN (11748164_a_at) / Fold change /veh VCAN (11748164_a_at) / RFU JSRP1 (11732532_at) / Fold change /veh JSRP1 (11732532_at) / RFU KRTAP10-11 (11738290_x_at) / Fold change /veh KRTAP10-11 (11738290_x_at) / RFU MYO3A (11730013_a_at) / Fold change /veh MYO3A (11730013_a_at) / RFU EBF3 (11725865_a_at) / Fold change /veh EBF3 (11725865_a_at) / RFU CAMK2N1 (11719241_x_at) / Fold change /veh CAMK2N1 (11719241_x_at) / RFU C5orf56 (11738088_a_at) / Fold change /veh C5orf56 (11738088_a_at) / RFU OLFML3 (11715873_a_at) / Fold change /veh OLFML3 (11715873_a_at) / RFU LOC100653217 /// NTM (11731650_a_at) / Fold change /veh LOC100653217 /// NTM (11731650_a_at) / RFU MAPK11 (11762145_a_at) / Fold change /veh MAPK11 (11762145_a_at) / RFU FIZ1 (11724087_x_at) / Fold change /veh FIZ1 (11724087_x_at) / RFU OASL (11726364_x_at) / Fold change /veh OASL (11726364_x_at) / RFU SOX15 (11748057_x_at) / Fold change /veh SOX15 (11748057_x_at) / RFU CD79A (11719716_a_at) / Fold change /veh CD79A (11719716_a_at) / RFU HIST1H1D (11736915_at) / Fold change /veh HIST1H1D (11736915_at) / RFU CASKIN2 (11723855_a_at) / Fold change /veh CASKIN2 (11723855_a_at) / RFU LOC730098 (11760151_x_at) / Fold change /veh LOC730098 (11760151_x_at) / RFU OR4N2 (11742367_at) / Fold change /veh OR4N2 (11742367_at) / RFU PRRT2 (11749266_a_at) / Fold change /veh PRRT2 (11749266_a_at) / RFU SNX32 (11753110_a_at) / Fold change /veh SNX32 (11753110_a_at) / RFU CDHR5 (11726645_a_at) / Fold change /veh CDHR5 (11726645_a_at) / RFU RCAN1 (11760418_a_at) / Fold change /veh RCAN1 (11760418_a_at) / RFU FAM167A (11723789_a_at) / Fold change /veh FAM167A (11723789_a_at) / RFU FAM26E (11764081_at) / Fold change /veh FAM26E (11764081_at) / RFU ISYNA1 (11749810_s_at) / Fold change /veh ISYNA1 (11749810_s_at) / RFU ACY1 (11761880_at) / Fold change /veh ACY1 (11761880_at) / RFU 11764098_at / Fold change /veh 11764098_at / RFU SAMD14 (11745864_x_at) / Fold change /veh SAMD14 (11745864_x_at) / RFU NPB (11741838_a_at) / Fold change /veh NPB (11741838_a_at) / RFU TMPRSS6 (11731388_a_at) / Fold change /veh TMPRSS6 (11731388_a_at) / RFU KRTAP10-2 (11738614_at) / Fold change /veh KRTAP10-2 (11738614_at) / RFU ARHGAP8 /// PRR5-ARHGAP8 (11727945_x_at) / Fold change /veh ARHGAP8 /// PRR5-ARHGAP8 (11727945_x_at) / RFU KRTAP5-7 /// NADSYN1 (11734609_at) / Fold change /veh KRTAP5-7 /// NADSYN1 (11734609_at) / RFU RASL12 (11751679_a_at) / Fold change /veh RASL12 (11751679_a_at) / RFU CDKN2B (11736163_a_at) / Fold change /veh CDKN2B (11736163_a_at) / RFU PRF1 (11729649_at) / Fold change /veh PRF1 (11729649_at) / RFU, ZNF638 /// ZNF638-IT1 / Fold change vs veh, ZNF638 /// ZNF638-IT1 / RFU, PANK3 / Fold change vs veh, PANK3 / RFU, SH3YL1 / Fold change vs veh, SH3YL1 / RFU, ZEB2 / Fold change vs veh, ZEB2 / RFU, NRIP1 / Fold change vs veh, NRIP1 / RFU, PTTG1IP / Fold change vs veh, PTTG1IP / RFU, CAPN2 / Fold change vs veh, CAPN2 / RFU, MED14 / Fold change vs veh, MED14 / RFU, SNORA58 / Fold change vs veh, SNORA58 / RFU, C1orf63 / Fold change vs veh, C1orf63 / RFU, LRRFIP1 / Fold change vs veh, LRRFIP1 / RFU, NDUFAF7 / Fold change vs veh, NDUFAF7 / RFU, SLC12A2 / Fold change vs veh, SLC12A2 / RFU, IBTK / Fold change vs veh, IBTK / RFU, ESF1 / Fold change vs veh, ESF1 / Fold change vs veh, TMEM50B / RFU, TAOK1 / Fold change vs veh, TAOK1 / RFU, ACBD3 / Fold change vs veh, ACBD3 / RFU, TMA16 / Fold change vs veh, TMA16 / RFU, RWDD3 / Fold change vs veh, RWDD3 / RFU, BCAT1 / Fold change vs veh, BCAT1 / RFU, EDEM3 / Fold change vs veh, EDEM3 / RFU, TMEM33 / Fold change vs veh, TMEM33 / RFU, WDR75 / Fold change vs veh, WDR75 / RFU, AHCTF1 / Fold change vs veh, AHCTF1 / RFU, TFRC / Fold change vs veh, TFRC / RFU, ZDHHC17 / Fold change vs veh, ZDHHC17 / RFU, NOM1 / Fold change vs veh, NOM1 / RFU, ARL8B / Fold change vs veh, ARL8B / RFU, ZBTB11 / Fold change vs veh, ZBTB11 / RFU, TAMM41 / Fold change vs veh, TAMM41 / RFU, KIAA1704 /// LOC100996395 / Fold change vs veh, KIAA1704 /// LOC100996395 / RFU, ING1 / Fold change vs veh, ING1 / RFU, TRMT61B / Fold change vs veh, TRMT61B / RFU, FUBP3 / Fold change vs veh, FUBP3 / RFU, TP53 / Fold change vs veh, TP53 / RFU, TNKS2 / Fold change vs veh, TNKS2 / RFU, ZFP14 / Fold change vs veh, ZFP14 / RFU, ACTR2 / Fold change vs veh, ACTR2 / RFU, PPP3R1 / Fold change vs veh, PPP3R1 / RFU, PIK3R1 / Fold change vs veh, PIK3R1 / RFU, HNRNPA1 / Fold change vs veh, HNRNPA1 / RFU, RNF170 / Fold change vs veh, RNF170 / RFU, ZNF28 / Fold change vs veh, ZNF28 / RFU, RNGTT / Fold change vs veh, RNGTT / RFU, OGT / Fold change vs veh, OGT / RFU, BRD1 / Fold change vs veh, BRD1 / RFU, MARS / Fold change vs veh, MARS / RFU, ZNF655 / Fold change vs veh, ZNF655 / RFU, FAHD1 / Fold change vs veh, FAHD1 / RFU, BDP1 / Fold change vs veh, BDP1 / RFU, LRRCC1 / Fold change vs veh, LRRCC1 / RFU, ARID1A / Fold change vs veh, ARID1A / RFU, ZNF146 / Fold change vs veh, ZNF146 / RFU, ZNF330 / Fold change vs veh, ZNF330 / RFU, GPN3 / Fold change vs veh, GPN3 / RFU, C9orf123 / Fold change vs veh, C9orf123 / RFU, N4BP2L2 / Fold change vs veh, N4BP2L2 / RFU, ARFIP1 / Fold change vs veh, ARFIP1 / RFU, FAM179B / Fold change vs veh, FAM179B / RFU, BCL10 / Fold change vs veh, BCL10 / RFU, UHRF1BP1L / Fold change vs veh, UHRF1BP1L / RFU, BET1 / Fold change vs veh, BET1 / RFU, CNOT2 / Fold change vs veh, CNOT2 / RFU, ZNF268 / Fold change vs veh, ZNF268 / Fold change vs veh, ZNF507 / RFU, DGCR2 / Fold change vs veh, DGCR2 / RFU, WDSUB1 / Fold change vs veh, WDSUB1 / Fold change vs veh, HSP90B1 /// MIR3652 / RFU, ADSS / Fold change vs veh, ADSS / RFU, GK / Fold change vs veh, GK / RFU, ZNF148 / Fold change vs veh, ZNF148 / RFU, TAF9 / Fold change vs veh, TAF9 / RFU, SLC1A5 / Fold change vs veh, SLC1A5 / RFU, SLMO2 / Fold change vs veh, SLMO2 / RFU, ABCC4 / Fold change vs veh, ABCC4 / RFU, LOC101060439 /// RAP1B / Fold change vs veh, LOC101060439 /// RAP1B / RFU, RFX7 / Fold change vs veh, RFX7 / RFU, GTPBP10 / Fold change vs veh, GTPBP10 / RFU, CNEP1R1 / Fold change vs veh, CNEP1R1 / RFU, BIVM-ERCC5 /// ERCC5 / Fold change vs veh, BIVM-ERCC5 /// ERCC5 / RFU, ILF3 / Fold change vs veh, ILF3 / RFU 11762660_at / Fold change /veh 11762660_at / RFU VCAN (11757783_s_at) / Fold change /veh VCAN (11757783_s_at) / RFU DDX43 (11728927_at) / Fold change /veh DDX43 (11728927_at) / RFU KRT8 (11758188_x_at) / Fold change /veh KRT8 (11758188_x_at) / RFU NKD1 (11759106_at) / Fold change /veh NKD1 (11759106_at) / RFU SRD5A1 (11742802_a_at) / Fold change /veh SRD5A1 (11742802_a_at) / RFU TPSAB1 /// TPSB2 (11721975_s_at) / Fold change /veh TPSAB1 /// TPSB2 (11721975_s_at) / RFU GSTM3 (11746129_a_at) / Fold change /veh GSTM3 (11746129_a_at) / RFU IL23R (11737362_x_at) / Fold change /veh IL23R (11737362_x_at) / RFU TMEM51 (11727254_a_at) / Fold change /veh TMEM51 (11727254_a_at) / RFU PIWIL2 (11732686_x_at) / Fold change /veh PIWIL2 (11732686_x_at) / RFU ORM1 (11744905_x_at) / Fold change /veh ORM1 (11744905_x_at) / RFU CCDC152 (11743942_at) / Fold change /veh CCDC152 (11743942_at) / RFU ECM1 (11717891_a_at) / Fold change /veh ECM1 (11717891_a_at) / RFU IL23R (11748794_a_at) / Fold change /veh IL23R (11748794_a_at) / RFU TNFAIP8L3 (11732012_x_at) / Fold change /veh TNFAIP8L3 (11732012_x_at) / RFU MBOAT4 (11741988_at) / Fold change /veh MBOAT4 (11741988_at) / RFU 11764193_at / Fold change /veh 11764193_at / RFU TMEM53 (11763286_at) / Fold change /veh TMEM53 (11763286_at) / RFU MAGEB2 (11727129_at) / Fold change /veh MAGEB2 (11727129_at) / RFU TMEM200A (11744735_a_at) / Fold change /veh TMEM200A (11744735_a_at) / RFU CCDC152 (11751479_a_at) / Fold change /veh CCDC152 (11751479_a_at) / RFU FAM211A (11726209_a_at) / Fold change /veh FAM211A (11726209_a_at) / RFU RGS16 (11746705_a_at) / Fold change /veh RGS16 (11746705_a_at) / RFU VCAN (11755009_s_at) / Fold change /veh VCAN (11755009_s_at) / RFU RHOB (11743442_s_at) / Fold change /veh RHOB (11743442_s_at) / RFU RGS16 (11720943_a_at) / Fold change /veh RGS16 (11720943_a_at) / RFU RGS16 (11720944_at) / Fold change /veh RGS16 (11720944_at) / RFU, VPS4B / Fold change vs veh, VPS4B / RFU, CREB1 / Fold change vs veh, CREB1 / RFU, DNAJC13 / Fold change vs veh, DNAJC13 / RFU, GNAQ / Fold change vs veh, GNAQ / RFU, CDK5R1 / Fold change vs veh, CDK5R1 / RFU, ZRANB3 / Fold change vs veh, ZRANB3 / RFU, CUL4A / Fold change vs veh, CUL4A / RFU, CCNY / Fold change vs veh, CCNY / RFU, UFL1 / Fold change vs veh, UFL1 / RFU, COG3 / Fold change vs veh, COG3 / RFU, DIAPH2 / Fold change vs veh, DIAPH2 / RFU, SKA2 / Fold change vs veh, SKA2 / RFU, AFF3 / Fold change vs veh, AFF3 / RFU, LMF1 / Fold change vs veh, LMF1 / RFU, IPO11 / Fold change vs veh, IPO11 / RFU, DFFB / Fold change vs veh, DFFB / RFU, FOXP1 / Fold change vs veh, FOXP1 / RFU, CARD8 / Fold change vs veh, CARD8 / RFU, STRN3 / Fold change vs veh, STRN3 / RFU, ADK / Fold change vs veh, ADK / RFU, RASSF2 / Fold change vs veh, RASSF2 / RFU, WIPF1 / Fold change vs veh, WIPF1 / RFU, LARP1B / Fold change vs veh, LARP1B / RFU, RASA1 / Fold change vs veh, RASA1 / RFU, RB1 / Fold change vs veh, RB1 / RFU, PPFIA1 / Fold change vs veh, PPFIA1 / RFU, MAT2A / Fold change vs veh, MAT2A / RFU, CCT5 / Fold change vs veh, CCT5 / RFU, WDR92 / Fold change vs veh, WDR92 / RFU, CUX1 / Fold change vs veh, CUX1 / RFU, TTC7A / Fold change vs veh, TTC7A / RFU, TMEM135 / Fold change vs veh, TMEM135 / RFU, DEPTOR / Fold change vs veh, DEPTOR / RFU, CPM / Fold change vs veh, CPM / RFU, DNAJB6 / Fold change vs veh, DNAJB6 / RFU, CACNA2D3 / Fold change vs veh, CACNA2D3 / RFU, DTX4 / Fold change vs veh, DTX4 / RFU, TFCP2 / Fold change vs veh, TFCP2 / RFU, GMCL1 /// GMCL1P1 / Fold change vs veh, GMCL1 /// GMCL1P1 / RFU, AEBP2 / Fold change vs veh, AEBP2 / RFU, SNHG1 /// SNORD22 /// SNORD25 /// SNORD26 /// SNORD27 /// SNORD28 /// SNORD29 /// SNORD31 / Fold change vs veh, SNHG1 /// SNORD22 /// SNORD25 /// SNORD26 /// SNORD27 /// SNORD28 /// SNORD29 /// SNORD31 / Fold change (Aza/veh), C12orf56 (ProbeSet 11735607_a_at) / Fold change (ACY-1035/veh), C12orf56 (ProbeSet 11735607_a_at) / Fold change (Aza/veh), FGFR1OP (ProbeSet 11751329_s_at) / Fold change (ACY-1035/veh), FGFR1OP (ProbeSet 11751329_s_at) / Fold change (Aza/veh), VPS36 (ProbeSet 11739960_a_at) / Fold change (ACY-1035/veh), VPS36 (ProbeSet 11739960_a_at) / RFU SYPL1 (11715823_x_at) / Fold change /veh SYPL1 (11715823_x_at) / RFU IGFBP7 (11715501_s_at) / Fold change /veh IGFBP7 (11715501_s_at) / RFU REEP3 (11722064_at) / Fold change /veh REEP3 (11722064_at) / RFU IGLL1 (11728026_x_at) / Fold change /veh IGLL1 (11728026_x_at): dose or concentration left out as unconfirmed
Conditions: ProbeSet 11759095_at; LIST D

With Nc1ccc(-c2cccs2)cc1NC(=O)c1ccc2c(c1)cc(C1CC1)n2CCN1CCOCC1 [ACY-1035] the “Fold change vs veh, GNAQ” value was 0.95.
